The values that follow are results of earlier work, collected in patent US7101842B2, “Targeted delivery of drugs for the treatment of parasitic infections” (priority 2001, dated 2006).

Bounds are passed on as bounds.

The data set concerns trypanosomiasis. The conditions noted are these: patients treated for sleeping sickness.

For `Nc1nc(N)nc(Nc2ccc([As]3SCC(CO)S3)cc2)n1` (centres unmarked) [melarsopral], the “fatal encepholopathy in recipients” value is given as 5–7% and the relapse rates is listed as not above 10%.
